Among the data in patent US9125414B2, “Pyridine derivatives compounds for controlling invertebrate pests” (BASF SE, priority 2009, dated 2015) are mortality values, retold here.

Each structure is given as a SMILES string.

Holding throughout (format): in vivo
The test system of assay [1] is Cotton Aphid (Aphis gossypii, mixed life stages). In words: Cotton aphid, method a (cotyledon dip). Particulars: 120 h, cotyledons dipped, counts after 5 days, read-out: mortality in comparison with untreated controls. The text has this: II.1 Cotton Aphid (Aphis gossypii, Mixed Life Stages)
The active compounds were formulated in 50:50 (vol:vol) acetone: water and 100 ppm Kinetica™ (from Helena Chemical Co.) surfactant.
Cotton plants at the cotyledon stage (one plant per pot) were infested by placing a heavily infested leaf from the main colony on top of each cotyledon. The aphids were allowed to transfer to the host plant overnight, and the leaf used to transfer the aphids was removed. The cotyledons were dipped in the test solution and allowed to dry. After 5 days, mortality counts were made.

In assay [2] the test system is Green Peach Aphid (Myzus persicae, mixed life stages). Put plainly: Green peach aphid, method a (leaf dip, pepper plants). The following applies: foliar, 120 h, leaves dipped, after 5 days, read-out: mortality in comparison with untreated controls. From the text:
II.2 Green Peach Aphid (Myzus persicae, Mixed Life Stages)
The active compounds were formulated in 50:50 (vol:vol) acetone:water and 100 ppm Kinetica™ (from Helena Chemical Co.) surfactant.
Pepper plants in the 2nd leaf-pair stage (variety ‘California Wonder’) were infested with approximately 40 laboratory-reared aphids by placing infested leaf sections on top of the test plants. The leaf sections were removed after 24 hr. The leaves of the intact plants were dipped into gradient solutions of the test compound and allowed to dry. Test plants were maintained under fluorescent light (24 hour photoperiod) at about 25° C. and 20-40% relative humidity. Aphid mortality on the treated plants, relative to mortality on check plants, was determined after 5 days.

For assay [3], the system named is Cowpea Aphid (Aphis craccivora). In words: Cowpea aphid, sprayed potted cowpea plants. Particulars: population reduction assessed after 24, 72 and 120 hours, read-out: mortality in comparison with untreated controls. The method, then: II.3 Cowpea Aphid (Aphis craccivora)
The active compounds were formulated in 50:50 (vol:vol) acetone:water. The test solution was prepared at the day of use.
Potted cowpea plants colonized with 100-150 aphids of various stages were sprayed after the pest population had been recorded. Population reduction was assessed after 24, 72, and 120 hours.

For assay [4], the system named is Vetch Aphid (Megoura viciae). In words: Vetch aphid, bean leaf disks in microtiterplates. The following applies: foliar, 144 h, test solution 2500 mg/L, leaf disks sprayed, 6 days. The method, then:
II.4 Vetch Aphid (Megoura viciae)
The active compounds were formulated in 1:3 (vol:vol) DMSO:water with different concentrations of formulated compounds.
Bean leaf disks were placed into microtiterplates filled with […] and 2.5 ppm OPUS™ (from BASF SE, conazole). The leaf disks were sprayed with 2.5 μl of the test solution and 5 to 8 adult aphids were placed into the microtiterplates which were then closed and kept at 23±1° C. and 50±5% relative humidity under fluorescent light for 6 days. Mortality was assessed on the basis of vital, reproduced aphids. Aphid mortality and fecundity was then visually assessed.

The subject of assay [5] is Green Peach Aphid (Myzus persicae). In words: Green peach aphid through systemic means, artificial diet under membrane. The following applies: 72 h, pipetted into aphid diet, 3 days, read-out: mortality in comparison with untreated controls. From the text: II.6 Activity Against Green Peach Aphid (Myzus persicae)
For evaluating control of green peach aphid (Myzus persicae) through systemic means the test unit consisted of 96-well-microtiter plates containing liquid artificial diet under an artificial membrane.
The compounds were formulated using a solution containing 75% v/v water and 25% v/v DMSO. Different concentrations of formulated compounds were pipetted into the aphid diet, using a custom built pipetter, at two replications. After application, 5 to 8 adult aphids were placed on the artificial membrane inside the microtiter plate wells. The aphids were then allowed to suck on the treated aphid diet and incubated at about 23+1° C. and about 50+5% relative humidity for 3 days. Aphid mortality and fecundity was then visually assessed.

As a reminder, the mortality is the percentage killed. Regarding `O=C(Nc1cccnc1)c1conc1C1CC1` [Example 15, 3-Cyclopropyl-isoxazole-4-carboxylic acid pyridin-3-ylamide], the mortality at 300 ppm in assay [1], in assay [2] and in assay [3] was no less than 90% each time. The mortality at 2500 µg/mL in assay [4] is no less than 90%. In assay [5], the mortality at 2500 ppm turned out to be 100%.
